Results as given in ChEMBL document CHEMBL3045922, “Synthesis of 6-(3-substituted-4H-1,2,4-triazol-4-yl)-2-phenylbenzo[d]oxazoles as potential anticonvulsant agents” (Med Chem Res, 2010).
Activity calls are given as the source filed them. The calls are words filed in the database; no cut-off is given here.

Legend:
Mus musculus [1] = test: Neurotoxicity in Mus musculus Kunming (mouse) assessed as minimal motor impairment at 300 mg/kg, ip at 4 hr by rotarod test; assay type: toxicity, organism-based; set-up: dose 300 mg/kg, route intraperitoneal; conditions: in vivo
Mus musculus [2] = test: Neurotoxicity in Mus musculus Kunming (mouse) assessed as minimal motor impairment at 300 mg/kg, ip at 0.5 hr by rotarod test; assay type: toxicity, organism-based; set-up: dose 300 mg/kg, route intraperitoneal; conditions: in vivo
Mus musculus [3] = test: Anticonvulsant activity in Mus musculus Kunming (mouse) assessed as protection against subcutaneous pentylenetetrazole-induced seizures at 100 mg/kg, ip at 4 hr; assay type: functional, organism-based; set-up: dose 100 mg/kg
Mus musculus [4] = test: Anticonvulsant activity in Mus musculus Kunming (mouse) assessed as protection against subcutaneous pentylenetetrazole-induced seizures at 100 mg/kg, ip at 0.5 hr; assay type: functional, organism-based; set-up: dose 100 mg/kg
Mus musculus [5] = test: Anticonvulsant activity in Mus musculus Kunming (mouse) assessed as protection against maximal electroshock-induced seizures at 100 mg/kg, ip at 4 hr; assay type: functional, organism-based; set-up: dose 100 mg/kg
Mus musculus [6] = test: Anticonvulsant activity in Mus musculus Kunming (mouse) assessed as protection against maximal electroshock-induced seizures at 100 mg/kg, ip at 0.5 hr; assay type: functional, organism-based; set-up: dose 100 mg/kg
Mus musculus [7] = test: Protective index, ratio of TD50 for Mus musculus Kunming (mouse) to ED50 for inhibition of maximal subcutaneous pentylenetetrazole-induced seizure in Mus musculus Kunming (mouse); assay type: functional
Mus musculus [8] = species: Mus musculus; test: Protective index, ratio of TD50 for Mus musculus Kunming (mouse) to ED50 for inhibition of maximal electroshock-induced seizure in Mus musculus Kunming (mouse); assay type: functional
[9] = Neurotoxicity in ip dosed Mus musculus Kunming (mouse) assessed as minimal motor impairment at 0.5 hr by rotarod test; assay type: toxicity, organism-based; conditions: in vivo
Mus musculus [10] = test: Anticonvulsant activity in ip dosed Mus musculus Kunming (mouse) assessed as protection against subcutaneous pentylenetetrazole-induced seizures at 0.5 hr; assay type: functional
Mus musculus [11] = test: Anticonvulsant activity in ip dosed Mus musculus Kunming (mouse) assessed as protection against maximal electroshock-induced seizures at 0.5 hr; assay type: functional

Row | SMILES | Activity (Mus musculus [1]) | Activity (Mus musculus [2]) | Activity (Mus musculus [3]) | Activity (Mus musculus [4]) | Activity (Mus musculus [5]) | Activity (Mus musculus [6]) | Ratio TD50/ED50 (Mus musculus [7]) | Ratio TD50/ED50 (Mus musculus [8]) | TD50 at 0.5 h [9] [mg/kg] | ED50 (Mus musculus [10]) [mg/kg] | ED50 (Mus musculus [11]) [mg/kg]
1 | COc1ccc(-c2nncn2-c2ccc3nc(-c4ccccc4)oc3c2)cc1 | Non-toxic | Non-toxic | inactive | inactive | inactive |  |  |  |  |  | 
2 | O=[N+]([O-])c1ccc(-c2nncn2-c2ccc3nc(-c4ccccc4)oc3c2)cc1 |  |  | inactive | inactive | inactive | inactive |  |  |  |  | 
3 | Fc1ccc(-c2nncn2-c2ccc3nc(-c4ccccc4)oc3c2)cc1 | Non-toxic | Non-toxic | inactive | inactive | inactive |  |  |  |  |  | 
4 | CCCCCc1nncn1-c1ccc2nc(-c3ccccc3)oc2c1 |  |  | inactive | inactive | inactive | inactive |  |  |  |  | 
5 | c1ccc(-c2nc3ccc(-n4cnnc4)cc3o2)cc1 | Non-toxic |  | inactive | inactive | Active | Active | 4.1 | 9.7 | 285 | 69.8 | 29.5
6 | CCCCc1nncn1-c1ccc2nc(-c3ccccc3)oc2c1 | Non-toxic | Non-toxic | inactive |  | inactive |  |  |  |  |  | 
7 | COc1cccc(-c2nncn2-c2ccc3nc(-c4ccccc4)oc3c2)c1 | Non-toxic |  | inactive | inactive | inactive | Active |  | 3.7 | 249 |  | 66.5
8 | CCCCCCCCCc1nncn1-c1ccc2nc(-c3ccccc3)oc2c1 | Toxic | Toxic | inactive |  | inactive | inactive |  |  |  |  | 
9 | NC(=O)N1c2ccccc2C=Cc2ccccc21 [CARBAMAZEPINE] |  |  |  |  |  |  | <1.3 | 6.4 |  | > 100 | 
10 | Cc1nncn1-c1ccc2nc(-c3ccccc3)oc2c1 |  | Toxic | inactive |  | Active | Active | 2.3 | 6.3 | 167 | 75.6 | 26.5
11 | Clc1ccc(-c2nncn2-c2ccc3nc(-c4ccccc4)oc3c2)cc1 | Non-toxic | Non-toxic | inactive | inactive | inactive |  |  |  |  |  | 
12 | Clc1cccc(-c2nncn2-c2ccc3nc(-c4ccccc4)oc3c2)c1 | Non-toxic | Toxic | inactive |  | inactive |  |  |  |  |  | 
13 | Fc1cccc(-c2nncn2-c2ccc3nc(-c4ccccc4)oc3c2)c1 | Non-toxic | Non-toxic | inactive | inactive | inactive |  |  |  |  |  | 
14 | CCCc1nncn1-c1ccc2nc(-c3ccccc3)oc2c1 | Non-toxic |  | inactive |  | inactive |  |  |  |  |  | 
15 | Clc1ccccc1-c1nncn1-c1ccc2nc(-c3ccccc3)oc2c1 | Non-toxic | Non-toxic | inactive |  | inactive | inactive |  |  |  |  | 
16 | CCc1nncn1-c1ccc2nc(-c3ccccc3)oc2c1 | Non-toxic |  | inactive |  |  |  |  |  |  |  | 
17 | Cc1ccc(-c2nncn2-c2ccc3nc(-c4ccccc4)oc3c2)cc1 |  | Toxic | inactive |  | inactive |  |  |  |  |  | 
18 | c1ccc(-c2nc3ccc(-n4cnnc4-c4ccccc4)cc3o2)cc1 |  |  | inactive |  |  | Active |  | 4.1 | 266 |  | 65.4
